molecular target: T1, BRD4 bromodomain 1 (BD1) (Homo sapiens, UniProt O60885); assay: BRD4 (BD1)-H4 tetra-acetylated HTRF histone-binding assay; conditions: Table 1
T1 construct: Selectivity against BRD4 bromodomain 1 (BD1), measured by HTRF; His; purchased Cayman 11720
Experimental: (§1) Protein Production. Double stranded DNA fragments encoding the protein sequence of ENL YEATS(1-148) were synthesized (IDT DNA) for assembly-based cloning into a modified expression vector backbone derived from pET21a (Novagen). The protein was fused to a StrepII-SUMO and 6×His tag on the amino and carboxy terminus, respectively. Transformed BL21(DE3) cells (New England Biolabs) were grown at 37° C. in 2×YT growth medium to an OD600 of 0.6. Protein expression was induced at 25° C. with the addition of isopropyl-β-D-thiogalactopyranoside (IPTG) to a final concentration of 0.4 mM. The culture was harvested by centrifugation following a 20-hour incubation and subsequently purified by immobilized metal affinity chromatography. Cells were resuspended 50 mM Tris-HCl pH 8.0, 300 mM NaCl, 10% glycerol, 10 mM imidazole, 1 mM DTT containing Complete EDTA-free protease inhibitor (Roche) and lysed by two passes through a MicroFluidizer at 10,000 psi. The lysate was clarified by centrifugation at 16,000 rpm for 30 minutes at 4° C. The supernatant was passed over NiNTA agarose (QIAGEN) and the protein was eluted in 50 mM Tris-HCl pH 8.0, 300 mM NaCl, 10% glycerol, 250 mM imidazole, 1 mM DTT. Fractions containing the ENL YEATS(1-148) fusion protein were buffer exchanged into 100 mM Tris-HCl pH 8.0, 150 mM NaCl, 1 mM EDTA, 1 mM DTT using PD10 desalting columns (GE Life Sciences). Ulp1 protease was added to cleave the StrepII-SUMO fusion and the reaction mixture was incubated overnight at 4° C. The cleavage reaction mixture was loaded onto a StrepTrap column (GE Life Sciences) and ENL YEATS(1-148) was recovered in the flow through. BRD4 BD1 was purchased from Cayman (Cat. No. 11720).
(§2) Homogenous time-resolved FRET (HTRF) histone-binding assays. Both HTRF assays were performed by combining recombinant protein and synthetic histone peptide in assay buffer (25 mM HEPES pH 7, 20 mM NaCl, 0.2% Pluronic F-127, and 0.05% BSA) with 1 nM LanthaScreen Eu-anti-His Tag antibody (ThermoFisher, Cat. No, PV5597) and 8.9 nM SureLight allophycocyanin-streptavidin (Perkin Elmer, APC-SA, Cat. No. CR130-100). ENL YEATS was used at 5 nM and BRD4 BD1 was used at 10 nM. ENL assays were performed with H3(13-32)K27cr (13.3 and 100 nM, respectively), custom synthesized at ABclonal (N-terminal biotin, C-terminal amide); BRD4 BD1 assay was performed with 13.3 nM tetra-acetylated H4 (BioVision, Cat. No. 7144-01). Once all reagents were combined (with or without peptide), 10 μL was dispensed per well into black 384-well low-volume plates (Corning, Cat. No. 3821) and drug was added by pin tool transfer (Biomek FX). Assays were incubated for 2 or more hours before measurement of HTRF signal on a PHERAstar plate reader (BMG Labtech; simultaneous dual emission; excitation=337 nm, emission 1=665 nm, emission 2=620 nm). HTRF signal (ratio of emission 1 to emission 2) from vehicle-treated wells (maximum signal) and no-peptide-control wells (minimum signal) were used to calculate percent inhibition for drug-treated wells.

| SMILES | IC50 |
| --- | --- |
| CC(C)NC(=O)c1ccc2nc(-c3cccc(NS(=O)(=O)NCCC(N)=O)c3)cn2c1 [Compound 56] | > 50000 nM |
| CC(C)NC(=O)c1ccc2nc(-c3cccc(NS(=O)(=O)NCCO)c3)cn2c1 [Compound 57] | > 50000 nM |
| CC(C)NC(=O)c1ccc2nc(-c3cccc(NS(=O)(=O)NCCc4ccc(N)cc4)c3)cn2c1 [Compound 58] | > 50000 nM |
| CC(C)NC(=O)c1ccc2nc(-c3cccc(NS(=O)(=O)NCCCCCC#N)c3)cn2c1 [Compound 59] | > 50000 nM |
| CC(C)NC(=O)c1ccc2nc(-c3cccc(NS(=O)(=O)NCCCC(=O)O)c3)cn2c1 [Compound 60] | > 50000 nM |
| CC(C)NC(=O)c1ccc2nc(-c3cccc(NS(=O)(=O)NCCCCCCC(=O)O)c3)cn2c1 [Compound 61] | > 50000 nM |
| CC(C)NC(=O)c1ccc2nc(-c3cccc(NS(=O)(=O)NCCCCO)c3)cn2c1 [Compound 62] | > 50000 nM |
| CC(C)NC(=O)c1ccc2nc(-c3cccc(NS(=O)(=O)NCCCCCCCC(=O)O)c3)cn2c1 [Compound 63] | > 50000 nM |
| CC(C)NC(=O)c1ccc2nc(-c3cccc(NS(=O)(=O)NCCCN4CCCC4)c3)cn2c1 [Compound 64] | > 50000 nM |
| CC(C)NC(=O)c1ccc2nc(-c3cccc(NS(=O)(=O)NC[C@H]4CC[C@H](C(=O)O)CC4)c3)cn2c1 [Compound 65] | > 50000 nM |
| CC(C)NC(=O)c1ccc2nc(-c3cccc(NS(=O)(=O)NCCC(=O)O)c3)cn2c1 [Compound 66] | > 50000 nM |
| CC(C)NC(=O)c1ccc2nc(-c3cccc(NS(=O)(=O)NCCCn4ccnc4)c3)cn2c1 [Compound 67] | > 50000 nM |
| CC(C)NC(=O)c1ccc2nc(-c3cccc(N=S(=O)(F)N4CCC[C@@H]4C(=O)O)c3)cn2c1 (stereo partly shown) [Compound 68] | > 50000 nM |

same assay, conditions: Table 2

| SMILES | IC50 |
| --- | --- |
| CC(C)NC(=O)c1ccc2nc(-c3cccc(NS(=O)(=O)NCCC(N)=O)c3)cn2c1 [Compound 56] | > 50000 nM |
| CC(C)NC(=O)c1ccc2nc(-c3cccc(NS(=O)(=O)NCCO)c3)cn2c1 [Compound 57] | > 50000 nM |
| CC(C)NC(=O)c1ccc2nc(-c3cccc(NS(=O)(=O)NCCc4ccc(N)cc4)c3)cn2c1 [Compound 58] | > 50000 nM |
| CC(C)NC(=O)c1ccc2nc(-c3cccc(NS(=O)(=O)NCCCCCC#N)c3)cn2c1 [Compound 59] | > 50000 nM |
| CC(C)NC(=O)c1ccc2nc(-c3cccc(NS(=O)(=O)NCCCC(=O)O)c3)cn2c1 [Compound 60] | > 50000 nM |
| CC(C)NC(=O)c1ccc2nc(-c3cccc(NS(=O)(=O)NCCCCCCC(=O)O)c3)cn2c1 [Compound 61] | > 50000 nM |
| CC(C)NC(=O)c1ccc2nc(-c3cccc(NS(=O)(=O)NCCCCO)c3)cn2c1 [Compound 62] | > 50000 nM |
| CC(C)NC(=O)c1ccc2nc(-c3cccc(NS(=O)(=O)NCCCCCCCC(=O)O)c3)cn2c1 [Compound 63] | > 50000 nM |
| CC(C)NC(=O)c1ccc2nc(-c3cccc(NS(=O)(=O)NCCCN4CCCC4)c3)cn2c1 [Compound 64] | > 50000 nM |
| CC(C)NC(=O)c1ccc2nc(-c3cccc(NS(=O)(=O)NC[C@H]4CC[C@H](C(=O)O)CC4)c3)cn2c1 [Compound 65] | > 50000 nM |
| CC(C)NC(=O)c1ccc2nc(-c3cccc(NS(=O)(=O)NCCC(=O)O)c3)cn2c1 [Compound 66] | > 50000 nM |
| CC(C)NC(=O)c1ccc2nc(-c3cccc(NS(=O)(=O)NCCCn4ccnc4)c3)cn2c1 [Compound 67] | > 50000 nM |
| CC(C)NC(=O)c1ccc2nc(-c3cccc(N=S(=O)(F)N4CCC[C@@H]4C(=O)O)c3)cn2c1 (stereo partly shown) [Compound 68] | > 50000 nM |

molecular target: T2, ENL(YEATS)-HiBiT (Homo sapiens, UniProt Q03111); assay: cell-based; conditions: not given
T2 sequence (Q03111 1-138 limits assumed): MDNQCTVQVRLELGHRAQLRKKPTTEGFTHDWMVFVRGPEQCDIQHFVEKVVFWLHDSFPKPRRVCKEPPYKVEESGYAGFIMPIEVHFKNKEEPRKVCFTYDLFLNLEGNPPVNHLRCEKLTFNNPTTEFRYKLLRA

| SMILES | IC50 |
| --- | --- |
| O=C(NC1COC1)c1ccc2nc(-c3ccccc3)cn2c1 [Compound 70] | 27300 nM |
| Cc1ccc(-c2cn3cc(C(=O)NC4CCC4)ccc3n2)cc1 [Compound 71] | 5520 nM |

molecular target: T3, ENL YEATS domain (association with H3K27cr) (Homo sapiens, UniProt Q03111); assay: biochemical; conditions: ENL (YEATS)-H3K27cr HTRF (IC50, μM), Table 1
T3 sequence (Q03111 1-148): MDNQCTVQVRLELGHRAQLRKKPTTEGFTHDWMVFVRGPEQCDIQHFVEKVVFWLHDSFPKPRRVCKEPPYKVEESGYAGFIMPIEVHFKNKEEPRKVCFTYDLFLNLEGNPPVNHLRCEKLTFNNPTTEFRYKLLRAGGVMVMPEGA
Experimental: as §1, §2

| SMILES | IC50 |
| --- | --- |
| CC(C)NC(=O)c1ccc2nc(-c3cccc(NS(=O)(=O)NCCC(N)=O)c3)cn2c1 [Compound 56] | 0.52 µM |
| CC(C)NC(=O)c1ccc2nc(-c3cccc(NS(=O)(=O)NCCO)c3)cn2c1 [Compound 57] | 0.43 µM |
| CC(C)NC(=O)c1ccc2nc(-c3cccc(NS(=O)(=O)NCCc4ccc(N)cc4)c3)cn2c1 [Compound 58] | 0.32 µM |
| CC(C)NC(=O)c1ccc2nc(-c3cccc(NS(=O)(=O)NCCCCCC#N)c3)cn2c1 [Compound 59] | 0.55 µM |
| CC(C)NC(=O)c1ccc2nc(-c3cccc(NS(=O)(=O)NCCCC(=O)O)c3)cn2c1 [Compound 60] | 0.69 µM |
| CC(C)NC(=O)c1ccc2nc(-c3cccc(NS(=O)(=O)NCCCCCCC(=O)O)c3)cn2c1 [Compound 61] | 0.36 µM |
| CC(C)NC(=O)c1ccc2nc(-c3cccc(NS(=O)(=O)NCCCCO)c3)cn2c1 [Compound 62] | 0.3 µM |
| CC(C)NC(=O)c1ccc2nc(-c3cccc(NS(=O)(=O)NCCCCCCCC(=O)O)c3)cn2c1 [Compound 63] | 0.46 µM |
| CC(C)NC(=O)c1ccc2nc(-c3cccc(NS(=O)(=O)NCCCN4CCCC4)c3)cn2c1 [Compound 64] | 0.34 µM |
| CC(C)NC(=O)c1ccc2nc(-c3cccc(NS(=O)(=O)NC[C@H]4CC[C@H](C(=O)O)CC4)c3)cn2c1 [Compound 65] | 0.32 µM |
| CC(C)NC(=O)c1ccc2nc(-c3cccc(NS(=O)(=O)NCCC(=O)O)c3)cn2c1 [Compound 66] | 0.63 µM |
| CC(C)NC(=O)c1ccc2nc(-c3cccc(NS(=O)(=O)NCCCn4ccnc4)c3)cn2c1 [Compound 67] | 0.33 µM |
| CC(C)NC(=O)c1ccc2nc(-c3cccc(N=S(=O)(F)N4CCC[C@@H]4C(=O)O)c3)cn2c1 (stereo partly shown) [Compound 68] | 0.61 µM |
| O=C(NC1COC1)c1ccc2nc(-c3ccccc3)cn2c1 [Compound 70] | > 50 µM |
| Cc1ccc(-c2cn3cc(C(=O)NC4CCC4)ccc3n2)cc1 [Compound 71] | 1.17 µM |

same assay, conditions: ENL (YEATS)-H3K27cr HTRF (IC50, μM), Table 2

| SMILES | IC50 |
| --- | --- |
| CC(C)NC(=O)c1ccc2nc(-c3cccc(NS(=O)(=O)NCCC(N)=O)c3)cn2c1 [Compound 56] | 0.52 µM |
| CC(C)NC(=O)c1ccc2nc(-c3cccc(NS(=O)(=O)NCCO)c3)cn2c1 [Compound 57] | 0.43 µM |
| CC(C)NC(=O)c1ccc2nc(-c3cccc(NS(=O)(=O)NCCc4ccc(N)cc4)c3)cn2c1 [Compound 58] | 0.32 µM |
| CC(C)NC(=O)c1ccc2nc(-c3cccc(NS(=O)(=O)NCCCCCC#N)c3)cn2c1 [Compound 59] | 0.55 µM |
| CC(C)NC(=O)c1ccc2nc(-c3cccc(NS(=O)(=O)NCCCC(=O)O)c3)cn2c1 [Compound 60] | 0.69 µM |
| CC(C)NC(=O)c1ccc2nc(-c3cccc(NS(=O)(=O)NCCCCCCC(=O)O)c3)cn2c1 [Compound 61] | 0.36 µM |
| CC(C)NC(=O)c1ccc2nc(-c3cccc(NS(=O)(=O)NCCCCO)c3)cn2c1 [Compound 62] | 0.3 µM |
| CC(C)NC(=O)c1ccc2nc(-c3cccc(NS(=O)(=O)NCCCCCCCC(=O)O)c3)cn2c1 [Compound 63] | 0.46 µM |
| CC(C)NC(=O)c1ccc2nc(-c3cccc(NS(=O)(=O)NCCCN4CCCC4)c3)cn2c1 [Compound 64] | 0.34 µM |
| CC(C)NC(=O)c1ccc2nc(-c3cccc(NS(=O)(=O)NC[C@H]4CC[C@H](C(=O)O)CC4)c3)cn2c1 [Compound 65] | 0.32 µM |
| CC(C)NC(=O)c1ccc2nc(-c3cccc(NS(=O)(=O)NCCC(=O)O)c3)cn2c1 [Compound 66] | 0.63 µM |
| CC(C)NC(=O)c1ccc2nc(-c3cccc(NS(=O)(=O)NCCCn4ccnc4)c3)cn2c1 [Compound 67] | 0.33 µM |
| CC(C)NC(=O)c1ccc2nc(-c3cccc(N=S(=O)(F)N4CCC[C@@H]4C(=O)O)c3)cn2c1 (stereo partly shown) [Compound 68] | 0.61 µM |
| O=C(NC1COC1)c1ccc2nc(-c3ccccc3)cn2c1 [Compound 70] | > 50 µM |
| Cc1ccc(-c2cn3cc(C(=O)NC4CCC4)ccc3n2)cc1 [Compound 71] | 1.17 µM |

Reference: US20220274980A1, “PHARMACOLOGICAL INHIBITORS OF THE ENL YEATS DOMAIN” (priority 2019, published 2022)
